Several values for one entry are separate records, joined by “and”; a condition that tells them apart may be missing. Equal entries are not always repeated. Blank lines part the entries; values can stand above or below the compound they belong to.
Test: solvent given as SMILES

Compound: c1ccc(-c2nc(-c3ccc(-c4nc(-c5ccccc5)c(-c5ccccc5)[nH]4)cc3)[nH]c2-c2ccccc2)cc1
- absorption maximum (in C1CCOC1): 361 nm
- absorption maximum (in CC#N): 355 nm and 358 nm
- absorption maximum (in CC(=O)O): 360 nm
- absorption maximum (in CC(C)=O): 360 nm
- absorption maximum (in CCOC(C)=O): 359 nm
- absorption maximum (in CCOCC): 359 nm
- absorption maximum (in CO): 357 nm
- absorption maximum (in CS(C)=O): 380 nm
- absorption maximum (in ClC(Cl)Cl): 358 nm

Compound: F[B-]1(F)n2cccc2C=C2C=CC=[N+]21
- absorption maximum (in C1CCCCC1): 503.5 nm
- absorption maximum (in CC(C)=O): 497.5 nm
- absorption maximum (in CCCCCC): 502 nm
- absorption maximum (in CCO): 498 nm
- absorption maximum (in CCOC(C)=O): 498 nm
- absorption maximum (in CO): 497 nm
- absorption maximum (in ClCCl): 503 nm
- absorption maximum (in OCC(F)(F)F): 497 nm

Compound: NC(=O)Cc1cccc2ccccc12
- absorption maximum (in C1COCCO1): 283 nm
- absorption maximum (in CC#N): 282 nm
- absorption maximum (in CCO): 282 nm
- absorption maximum (in ClC(Cl)Cl): 283 nm
- absorption maximum (in O): 280 nm
- absorption maximum (in OCCO): 283 nm
- absorption maximum (in [2H]O[2H]): 280 nm

Compound: CC1(C)c2ccccc2N2c3ccccc3C3(c4cc(C#N)ccc4-c4ccc(C#N)cc43)c3cccc1c32
- absorption maximum (in Cc1ccccc1): 327.78 nm

Compound: O=Cc1ccc2nc(C#Cc3ccc(N(c4ccccc4)c4ccccc4)cc3)sc2c1
- absorption maximum (in Cc1ccccc1): 411 nm

Compound: C#Cc1ccc2cc3c(C)cc(=O)oc3cc2c1
- absorption maximum (in CCO): 334 nm

Compound: CC1(C)c2ccccc2N(c2ccc(-c3ccc(C#N)cn3)cc2)c2ccccc21
- absorption maximum (in Cc1ccccc1): 384 nm

Compound: CCCC(=O)c1c2c(c(C(=O)CCC)c3c1OC(CC(=O)OC)(C(=O)O)O3)OCO2
- absorption maximum (in CC#N): 424 nm
- absorption maximum (in CCO): 445 nm
- absorption maximum (in CO): 442 nm
- absorption maximum (in ClCCl): 423 nm
- absorption maximum (in O): 448 nm

Compound: CC1=N/C(=C\c2cccc(N(C)C)c2)C(=O)N1CCO
- absorption maximum (in C1CCOC1): 354 nm
- absorption maximum (in CC#N): 352 nm
- absorption maximum (in CCCCCC): 352 nm

Compound: c1ccc(-c2nc(-c3ccccc3)nc(-c3ccc(-c4ccc(N5c6ccccc6[Si](c6ccccc6)(c6ccccc6)c6ccccc65)cc4)cc3)n2)cc1
- absorption maximum (in Cc1ccccc1): 308 nm

Compound: CCC1=C(C)C2=C(C)c3cc(I)c(I)n3[B-](F)(F)[N+]2=C1C
- absorption maximum (in C1CCCCC1): 532 nm
- absorption maximum (in CC(C)=O): 515.5 nm
- absorption maximum (in CCO): 520 nm
- absorption maximum (in CCOC(C)=O): 518.5 nm
- absorption maximum (in CO): 518 nm
- absorption maximum (in OCC(F)(F)F): 511.5 nm

Compound: CC1=N/C(=C\c2cccc(N(C)C)c2)C(=O)N1C
- absorption maximum (in C1CCOC1): 354 nm
- absorption maximum (in CC#N): 354 nm and 352 nm
- absorption maximum (in CCCCCC): 352 nm

Compound: C=Cc1cc2cc3c(cc2oc1=O)OCO3
- absorption maximum (in CC#N): 363 nm

Compound: CCN(CC)c1ccc2c(c1)C(C)(C)C(=O)C=C2
- absorption maximum (in O): 429 nm

Compound: CN(C)c1ccc(/C=C/c2cc3ccccc3c[n+]2C)cc1
- absorption maximum (in CC(C)=O): 425 nm
- absorption maximum (in ClCCl): 441 nm

Compound: CCC1(CC)c2ccccc2-c2ccc(C#Cc3cc(C#Cc4ccc5c(c4)C(CC)(CC)c4ccccc4-5)c4ccc5c(C#Cc6ccc7c(c6)C(CC)(CC)c6ccccc6-7)cc(C#Cc6ccc7c(c6)C(CC)(CC)c6ccccc6-7)c6ccc3c4c65)cc21
- absorption maximum (in Cc1ccccc1): 488 nm

Compound: CC(C)(C)c1ccc(Oc2c3c4c(cc(Oc5ccc(C(C)(C)C)cc5)c5c6c(Oc7ccc(C(C)(C)C)cc7)c(Oc7ccc(C(C)(C)C)cc7)c7c8c(cc(Oc9ccc(C(C)(C)C)cc9)c(c(c2Oc2ccc(C(C)(C)C)cc2)c45)c86)C(=O)OC7=O)C(=O)OC3=O)cc1
- absorption maximum (in ClC(Cl)Cl): 571 nm

Compound: Oc1cc2ccc3cc(O)cc4ccc(c1)c2c34
- absorption maximum (in CO): 381 nm

Compound: CCn1c2ccc(S(=O)(=O)O)cc2c(=O)c2cc3c(cc21)c(=O)c1cc(S(=O)(=O)O)ccc1n3CCCCCC(=O)O
- absorption maximum (in O): 536 nm

Compound: CC1(C)C(/C=C/C=C/C=C/C=C2/N(S(=O)(=O)[O-])c3ccc(S(=O)(=O)[O-])cc3C2(C)C)=[N+](S(=O)(=O)[O-])c2ccc(S(=O)(=O)[O-])cc21
- absorption maximum (in CO): 755 nm

Compound: N#Cc1ccc(/C=C/C=C/C2=NC3C(=O)NC(N)=NC3N2[C@H]2C[C@H](O)[C@@H](CO)O2)cc1 (some centres undefined)
- absorption maximum (in C1COCCO1): 395 nm
- absorption maximum (in CC#N): 387 nm
- absorption maximum (in CO): 381 nm

Compound: CCCCCCN(CCCCCC)c1ccc(C#Cc2ccc(C#N)cc2)cc1
- absorption maximum (in CC#N): 379 nm
- absorption maximum (in CO): 378 nm
- absorption maximum (in ClCCl): 385 nm

Compound: CCCCCCCCCCCCC(CCCCCCCCCC)Cn1c2cc(/C=C/C=C/c3nc4ccccc4s3)c3cccc4c5cccc6c(/C=C/C=C/c7nc8ccccc8s7)cc1c(c65)c2c34 (centres undefined)
- absorption maximum (in C1CCCCC1): 530 nm
- absorption maximum (in CC#N): 528 nm
- absorption maximum (in Cc1ccccc1): 538 nm
- absorption maximum (in ClCCl): 538 nm

Compound: CCN(CC)c1cc2oc3cc(N(CC)CC)c(F)cc3c(=O)c2cc1F
- absorption maximum (in CCO): 389 nm

Compound: FC(F)(F)c1ccc(/C=C/c2ccc(-c3nnc(-c4ccc(-c5cc6ccccc6s5)cc4)o3)cc2)cc1
- absorption maximum (in CC#N): 333 nm
- absorption maximum (in CC(C)=O): 342 nm
- absorption maximum (in CCCCCCCC): 337 nm
- absorption maximum (in CCCCCCCCCCO): 340 nm
- absorption maximum (in CCCCCCCCO): 342 nm
- absorption maximum (in CCCCCO): 341 nm
- absorption maximum (in CCCO): 340 nm
- absorption maximum (in CN(C)C=O): 345 nm
- absorption maximum (in CO): 337 nm
- absorption maximum (in CS(C)=O): 342 nm

Compound: Nc1ccc(/C=C/c2cccnc2)cc1
- absorption maximum (in CC#N): 342 nm
- absorption maximum (in CCCCCC): 336 nm

Compound: COc1ccc2ncccc2c1
- absorption maximum (in CC#N): 329 nm
- absorption maximum (in CCCC#N): 329 nm
- absorption maximum (in Cc1ccccc1): 331 nm

Second part, the compound after the results:

- absorption maximum (in CC#N): 618 nm
Compound: CC1=CC(/C=C/c2ccc([N+](C)(C)C)cc2)=[N+]2C1=C(c1ccc(C#CCO[C@@H]3O[C@H](CO)[C@@H](O)C(O)[C@H]3O)cc1)c1c(C)cc(/C=C/c3ccc([N+](C)(C)C)cc3)n1[B-]2(F)F (some centres undefined)

- absorption maximum (in CN(C)C=O): 681 nm
Compound: CCOC(=O)C(Cc1ccc(O[Si]2(Oc3ccc(CC(NC(C)=O)C(=O)OCC)cc3)n3c4c5ccccc5c3/N=C3N=C(/N=c5/c6ccccc6/c(n52)=N/C2=NC(=N\4)/c4ccccc42)c2ccccc2\3)cc1)NC(C)=O (centres undefined)

- absorption maximum (in C1CCOC1): 297 nm
Compound: CC(C)(C)c1ccc(-c2c(-c3cccc(N(c4ccccc4)c4ccccc4)c3)c(C#N)c(-c3cccc(N(c4ccccc4)c4ccccc4)c3)c(-c3ccc(C(C)(C)C)cc3)c2-c2ccc(C(C)(C)C)cc2)cc1

- absorption maximum (in C1CCCCC1): 350 nm
Compound: CCCC1(CCC)c2ccccc2-c2ccc(-c3ccc4c(c3)C(CCC)(CCC)c3cc(-c5ccc6c(c5)C(CCC)(CCC)c5ccccc5-6)ccc3-4)cc21

- absorption maximum (in C1CCOC1): 362 nm
Compound: N#Cc1c(N2CCCCC2)cc(-c2ccc3ccccc3c2)c2c1-c1ccccc1C2

- absorption maximum (in ClCCl): 539 nm
Compound: COc1ccc(-c2c3cc4cc(C)sc4cc3c(C#Cc3ccccc3)c3cc4cc(C)sc4cc23)cc1

- absorption maximum (in ClCCl): 314 nm
Compound: Cc1cc2c3ccccc3oc2c2[nH]c3ccccc3c12

- absorption maximum (in CS(C)=O): 634 nm
Compound: COc1ccc(-c2c3nc(cc4ccc([nH]4)c(-c4ccc(OC)c(OCCCC(=O)O)c4)c4nc(cc5ccc2[nH]5)C=C4)C=C3)cc1OCCCC(=O)O

- absorption maximum (in C1CCOC1): 332 nm
Compound: Cc1cc(C)c(C2=C(c3c(C)sc(-c4ccc(-c5nc(-c6ccccc6)c(-c6ccccc6)[nH]5)cc4)c3C)C(F)(F)C(F)(F)C2(F)F)s1

- absorption maximum (in C1COCCO1): 457 nm
Compound: COc1ccc(C2=C/C(=C\c3ccc(C#N)cc3)C(=O)N2)cc1OC

- absorption maximum (in ClCCl): 428 nm
Compound: Cc1ccc(N(c2ccccc2)c2ccc3ccc4c(N(c5ccccc5)c5ccc(C)cc5)ccc5ccc2c3c54)cc1

- absorption maximum (in CO): 778 nm
Compound: CC1(C)C(/C=C/C2=C(Cl)C(=C/C=C3/N(CCCS(=O)(=O)[O-])c4ccccc4C3(C)C)/CCC2)=[N+](CCCS(=O)(=O)[O-])c2ccccc21

- absorption maximum (in CC#N): 568.51 nm
- absorption maximum (in CCCCCC): 580.18 nm
- absorption maximum (in ClCCl): 576 nm
Compound: CCCCCCCCOc1ccc(C2=C3C(C)=C(C#Cc4ccc(B(c5c(C)cc(C)cc5C)c5c(C)cc(C)cc5C)cc4)C(C)=[N+]3[B-](F)(F)n3c(C)c(C#Cc4ccc(B(c5c(C)cc(C)cc5C)c5c(C)cc(C)cc5C)cc4)c(C)c32)cc1

- absorption maximum (in ClCCl): 501 nm
Compound: CCC1=C(CC)c2cccc3c2c(cc2nc4ccccc4nc23)O1

- absorption maximum (in ClCCl): 391 nm
Compound: Cc1ccc(C(=O)c2c(C)c3ccc4cccc5c6cccc7ccc2c(c76)c3c45)cc1

- absorption maximum (in C1COCCO1): 431 nm
Compound: COc1ccc(C2=C/C(=C\c3ccccc3)C(=O)N2)cc1OC

- absorption maximum (in CC#N): 340 nm
- absorption maximum (in CCCCOCCCC): 341 nm
- absorption maximum (in CO): 340 nm
Compound: COc1nc(Nc2ccc3ccc4cccc5ccc2c3c45)nc(OC)n1

- absorption maximum (in ClCCl): 555 nm
Compound: COc1ccc(C2=C(C)C3=C(c4c(-c5ccccn5)nc5ccccn45)c4c(C)c(-c5ccc(OC)cc5)c(C)n4[B-](F)(F)[N+]3=C2C)cc1

- absorption maximum (in ClC(Cl)Cl): 504 nm
Compound: CC1=CC(C)=[N+]2C1=C(c1ccc(I)cc1)c1c(C)cc(C)n1[B-]2(F)F

- absorption maximum (in C1CCCCC1): 320 nm
- absorption maximum (in CO): 320 nm
Compound: C(=C\c1nc2ccccc2o1)/c1ccccc1

- absorption maximum (in CC#N): 325 nm
Compound: CN(C)c1ccc(-c2nc3ccccc3n2-c2ccccc2)cc1

- absorption maximum (in C1CCOC1): 358 nm
Compound: N#Cc1c(N2CCCCC2)cc(-c2ccccc2)c2c1Cc1ccccc1-2

- absorption maximum (in C1CCOC1): 409 nm
Compound: COc1cc2c(cc1-c1ccc(C#N)cc1)Cc1c3c(c4c(c1-2)-c1cc(OC)c(-c2ccc(C#N)cc2)cc1C4)C(=O)N(CCC(C)C)C3=O

- absorption maximum (in ClC(Cl)Cl): 709 nm
Compound: Cc1ccc(/C2=c3\cc/c(o3)=C(\c3ccc(C)cc3)c3ccc([nH]3)-c3ccc4n3[B-](F)(F)[N+]3=C(C=CC3=C4c3cccs3)c3ccc2[nH]3)cc1

- absorption maximum (in C1CCOC1): 341 nm
Compound: c1ccc(-n2c3ccccc3c3cc(-c4ccn5nc(-c6ccc(-n7c8ccccc8c8ccccc87)cc6)nc5c4)ccc32)cc1

- absorption maximum (in ClCCl): 336 nm
Compound: CC(C)(C)NC(=O)c1ccc(-c2ccccc2)c2ccc3c4ccccc4c4ccccc4c3c12

- absorption maximum (in C1COCCO1): 404 nm
Compound: COC(=O)c1ccc(/C=C2\C=C(c3ccc(C#N)cc3)OC2=O)cc1

- absorption maximum (in ClCCl): 365 nm
Compound: CC(C)(C)c1ccc(-n2c(-c3ccc(-c4cccc(-c5c(-c6ccccc6)nc6ccccn56)c4)cc3)nc3c4ccccc4c4ccccc4c32)cc1

Source: the Deep4Chem optical property database
